{"source": "patent US8557790B2", "about": "“A3 adenoside receptor agonists for the reduction of intraocular pressure” (Can-Fite Biopharma Ltd., priority 2009, dated 2013)", "system": "patients with moderate-to-severe Keratoconjunctivitis Sicca (KCS)", "assay": "Phase 2 randomized, double-masked, placebo-controlled clinical study of oral IB-MECA; IOP measured at baseline and week 12", "format": "in vivo, human", "procedure": "A clinical study was conducted in patients with dry eye symptoms. The patients received an oral administration of IB-MECA at a dose of 1 mg or placebo, twice daily.\nThis study was a Phase 2, randomized, double-masked, placebo-controlled, parallel-group study in adult males and females, aged 18 years and over, with a diagnosis of moderate-to-severe Keratoconjunctivitis Sicca (KCS). Patients were randomized to receive either IB-MECA 1 mg or matching placebo, given orally, twice daily, for 12 weeks. A Screening Period of up to 4 weeks that includes a 2-week run-in period preceded a 12-week treatment period, followed by a 2-week follow-up period.\nSome patients received either the IB-MECA capsules or a matching placebo and others received the IB-MECA tablets or a matching placebo.\nEligible patients to be included in the study were adult males or females, aged 18 years and over, with a diagnosis of moderate-to-severe KCS as defined by: • (1) at least 1 of the following ocular symptoms scored at ≧2, where 0=none and 4=very severe/interferes with normal activities: photophobia, blurred vision, foreign body sensation, soreness or pain, itching, burning, dryness; AND • (2) ST (without anesthesia)<7 mm/5 min in either eye; AND • (3) Positive FS, defined as a corneal punctuate fluorescein staining score of ≧1 in either eye, where 0=none and 3=severe. Use of topical ocular treatments was banned during the course of the study other than unreserved artificial tears (REFRESH) up to 8 times/day for the duration of the trial. Also banned was periocular cosmetic application. (c) Patients' Exclusion Criteria\nPatients were excluded from the study if they had Sjögren's Syndrome with significant systemic non-exocrine gland involvement, Stevens-Johnson Syndrome, post-burn ocular injury, or chronic ocular disease other than KCS requiring topical treatment. Excluded were also patients being administered topical cyclosporine eye drops or systemic cyclosporine within 3 months prior to the Screening Visit; disease-modifying drugs, including methotrexate and biological agents, whose dose has been changed within 3 months prior to the Screening Visit or was expected to change during the trial; oral corticosteroids>10 mg prednisone, or equivalent, per day; or topical steroids within 2 weeks prior to the Screening Visit and for the duration of the study. […]", "key": {"[1]": {"conditions": "baseline to week 12, 1 mg orally twice daily, N=35"}}, "note": "Entries after “also recorded” stand apart in the source; their conditions may differ.", "data": [{"smiles": "CNC(=O)[C@H]1O[C@@H](n2cnc3c(NCc4cccc(I)c4)ncnc32)[C@H](O)[C@@H]1O", "note": "[IB-MECA, N^6-(3-iodobenzyl)-adenosine-5′-N-methyluronamide]", "values": [{"measurement": "IOP % change, Mean", "setting": "[1]", "result": "−6.07", "unit": "%"}, {"measurement": "IOP change, Mean", "setting": "[1]", "result": "−1.14"}, {"measurement": "decrease in IOP (% change)", "setting": "baseline to week 12, versus 1.95% in the placebo group, p<0.05", "result": 6.07, "unit": "%"}, {"measurement": "IOP week 12, Mean", "setting": "end of 12 weeks treatment, 1 mg orally twice daily, N=35", "result": 13.00}, {"measurement": "effect on IOP (in words)", "setting": "human subjects, oral 1 mg twice daily, tested subjects in general and patients with elevated IOP in particular", "result": "decreasing IOP; also recorded: lowering of intraocular pressure; also recorded: much more pronounce decrease in IOP than the placebo group"}, {"measurement": "effect on dry eye symptoms (in words)", "setting": "patients with dry eye symptoms, oral 1 mg twice daily", "result": "amelioration of some of the dry eye symptoms"}, {"measurement": "IOP at baseline, Mean", "setting": "prior to first treatment, KCS patients, capsules and tablets pooled, N=35", "result": 14.14}]}]}
